The nature of series [1]: Stability in human liver microsomes at 2.5 mM measured up to 60 mins in absence of phase 1 cofactor NADPH by HPLC analysis. Format: ADME, Microsome. The settings on record: 1 h, 2500 µM.
A short description of series [2]: Stability in human liver microsomes assessed as metabolic turnover at 2.5 mM preincubated for 5 mins followed by phase 1 cofactor NADPH addition measured for 60 mins by HPLC analysis. In kind it is ADME, Microsome. Particulars: read-out: Drug metabolism.
Series [3] in a line: Stability in human liver microsomes at 2.5 mM measured up to 60 mins in absence of phase 2 cofactor UDP-GlcUA/NADPH by HPLC analysis. Format: ADME, Microsome. Particulars: 1 h, 2500 µM. In general terms: Liver microsomes are a subcellular fraction often used to study metabolism.
Series [4] relates to Rattus norvegicus. Briefly: Inhibition of icilin-induced wet-dog shake in Wistar rat model at 10 mg/kg, ip treated 2 hrs prior to icilin challenge measured for 30 mins. Format: functional, organism-based.
For series [5], the system named is Rattus norvegicus. Briefly: Inhibition of icilin-induced wet-dog shake in Wistar rat model at 10 mg/kg, ip treated 30 mins prior to icilin challenge measured for 30 mins. In kind it is functional, organism-based.

SMILES strings stand for the structures. Calls of active or inactive are those of the source. No cut-off for these calls is given here.

Take `COC(=O)[C@@H]1Cc2c([nH]c3ccccc23)[C@@H](c2ccccc2)N1Cc1ccccc1`: the Stability entry in series [1] and in series [3] was “Stable” each time. For the same molecule, in series [2], the metabolised at 1 h was in the range of 1.1 to 72%.

Turning to `COC(=O)CC[C@H]1N[C@H](C(=O)NCc2ccc(F)cc2)Cc2c1[nH]c1ccccc21`, the metabolised at 1 h in series [2] was in the range of 1.1 to 72%.

For `O=C1N[C@H](Cc2ccccc2)C(=O)N2Cc3[nH]c4ccccc4c3C[C@@H]12`, the Stability result in series [1] and in series [3] was “Stable” throughout. Besides, the metabolised at 1 h in series [2] was 1.1 to 72%.

For the molecule `O=C1[C@@H]2Cc3c([nH]c4ccccc34)[C@@H](c3ccc(Cl)cc3)N2C(=O)N1Cc1ccc(F)cc1`, the Stability result in series [1] and in series [3] was “Stable” in each case. The metabolised at 1 h in series [2] was determined as 26.5%.

Take `COC(=O)C(Cc1c[nH]c2ccccc12)N(Cc1ccccc1)Cc1ccccc1` (centres undefined): the Stability result in series [1] and in series [3] was “Stable” each time. Moreover, the inhibition entry with Rattus norvegicus [4] was “inactive”. For the same molecule, the inhibition result in the series on Rattus norvegicus [5] is “Active”.
